Laboratory results published in patent US20230151014A1 (Repare Therapeutics Inc., priority 2020, published 2023).

molecular target: T1, recombinant human Myt1 (Homo sapiens, UniProt Q99640); experiment: Myt1 enzymatic assay (ADP-Glo kinase assay, IC50 and % max inhibition); format: biochemical; conditions: recombinant human Myt1 18 nM, ATP 10 μM
T1 construct: full length PKMYT1 recombinant human protein expressed in insect cells
T1 sequence (Q99640 1-499): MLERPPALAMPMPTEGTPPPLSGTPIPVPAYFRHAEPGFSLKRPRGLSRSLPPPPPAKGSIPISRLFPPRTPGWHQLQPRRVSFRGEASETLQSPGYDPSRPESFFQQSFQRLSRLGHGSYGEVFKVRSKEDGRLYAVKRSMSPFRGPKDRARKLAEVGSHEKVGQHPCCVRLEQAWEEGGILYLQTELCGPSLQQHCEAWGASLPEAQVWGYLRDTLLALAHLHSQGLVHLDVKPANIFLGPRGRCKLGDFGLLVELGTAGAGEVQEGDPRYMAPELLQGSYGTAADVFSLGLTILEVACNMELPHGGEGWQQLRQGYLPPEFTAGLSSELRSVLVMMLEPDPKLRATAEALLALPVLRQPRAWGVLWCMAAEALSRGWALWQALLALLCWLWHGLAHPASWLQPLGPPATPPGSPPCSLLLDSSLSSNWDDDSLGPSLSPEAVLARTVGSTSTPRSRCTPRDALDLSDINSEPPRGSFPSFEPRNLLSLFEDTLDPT
Method: Detection of Myt1 kinase activity utilized a recombinant human Myt1 kinase assay measuring the hydrolysis of ATP using a commercially available ADP-Glo Assay (ADP-Glo™ Kinase Assay from Promega, 10 000 assays, #V9102). […] After this, 5 μL of compounds (diluted in reaction buffer to 0.5% DMSO) was added to the microplate and the plate was spun briefly and incubated at 22° C. for 15 minutes. Ultra-Pure Adenosine Triphosphate (ATP) solution (ADP-Glo kit from Promega) was diluted in reaction buffer and 5 μL was added to the microplate, spun down briefly and incubated for 60 minutes at 30° C. […] After the 60-minute incubation, 15 μL of ADP-Glo reagent was added and the plate was spun briefly and sealed and incubated in the dark for 40 minutes at 22° C. […] Luminescence was read using the Envision (250 ms integration). The IC50 and the % max inhibition were calculated for each inhibitor compound tested.

SMILES	IC50
Cc1ccc(O)cc1-n1c(N)c(C(N)=O)c2nc(-c3cccc(C(=O)O)c3)ccc21 [Compound 9]	363 nM
Cc1ccc(O)c(C)c1-n1c(N)c(C(N)=O)c2nc(C(N)=O)cnc21 [Compound 220, 6-amino-5-(3-hydroxy-2,6-dimethyl-phenyl)pyrrolo[2,3-b]pyrazine-2,7-dicarboxamide]	< 10 nM
Cc1ccc(O)c(C)c1-n1c(N)c(C(N)=O)c2nc(N3CCNCC3)cnc21 [Compound 67]	14 nM
Cc1ccc(O)c(C)c1-n1c(N)c(C(N)=O)c2nc(C3CCC3)cnc21 [Compound 173, 6-amino-2-cyclobutyl-5-(3-hydroxy-2,6-dimethyl-phenyl)pyrrolo[2,3-b]pyrazine-7-carboxamide]	< 10 nM
Cc1ccc(O)c(C)c1-n1c(N)c(S(C)(=O)=O)c2nc(-c3cnccn3)cnc21 [Compound 278]	> 5000 nM
Cc1nc2c(C(N)=O)c(N)n(-c3c(Cl)ccc(O)c3C)c2nc1C [Compound 168]	< 10 nM
Cc1ccc(O)c(C)c1-n1c(N)c(C(N)=O)c2nc(C#CCc3ccccc3)cnc21 [Compound 1]	50 nM
CC(=O)Nc1cccc(-c2cnc3c(C(N)=O)c(N)n(-c4cc(O)ccc4C)c3n2)c1 [Compound 157]	1240 nM
Cc1ccc(O)cc1-n1c(N)c(C(N)=O)c2ncc(C(F)(F)F)cc21 [Compound 212, 2-amino-1-(5-hydroxy-2-methyl-phenyl)-6-(trifluoromethyl)pyrrolo[3,2-b]pyridine-3-carboxamide]	3440 nM
Cc1ccc(O)c(C)c1-n1c(N)c(C(N)=O)c2ncc(C#C[C@@H](C)O)nc21 [Compound 241]	24 nM
Cc1ccc(O)cc1-n1c(N)c(C(N)=O)c2nc(C#CCN3CCOCC3)ccc21 [Compound 16, 2-amino-1-(5-hydroxy-2-methyl-phenyl)-5-(3-morpholinoprop-1-ynyl)pyrrolo[3,2-b]pyridine-3-carboxamide]	9630 nM
CNC(=O)C1CCN(c2cnc3c(n2)c(C(N)=O)c(N)n3-c2c(C)ccc(O)c2C)CC1 [Compound 46, 6-amino-5-(3-hydroxy-2,6-dimethyl-phenyl)-2-[4-(methylcarbamoyl)-1-piperidyl]pyrrolo[2,3-b]pyrazine-7-carboxamide]	< 10 nM
Cc1ccc(O)c(C)c1-n1c(N)c(C(N)=O)c2nc(-c3cc(C(F)(F)F)ccn3)cnc21 [Compound 36]	14 nM
CC(=O)N1CCN(c2cnc3c(n2)c(C(N)=O)c(N)n3-c2c(C)ccc(O)c2C)CC1 [Compound 87]	< 10 nM
Cc1ccc(O)c(C)c1-n1c(N)c(C(N)=O)c2nc(N3CCN(C)CC3)cnc21 [Compound 53]	16 nM
Cc1ccc(O)cc1-n1c(N)c(C(N)=O)c2nc(-c3ccc(CC(=O)O)cc3)ccc21 [Compound 21]	283 nM
Cc1ccc(O)cc1-n1c(N)c(C(N)=O)c2ncc(CCc3ccccn3)nc21 [Compound 159]	1720 nM
Cc1ccc(O)cc1-n1c(N)c(C(N)=O)c2nc(C(F)(F)F)ccc21 [Compound 213]	195 nM
CCCCc1cnc2c(n1)c(C(N)=O)c(N)n2-c1c(C)ccc(O)c1C [Compound 96]	10 nM
Cc1ccc(O)cc1-n1c(N)c(C(N)=O)c2nc(-c3ccc(N4CCOCC4)nc3)ccc21 [Compound 7]	605 nM
Cc1ccc(O)cc1-n1c(N)c(C(N)=O)c2nc(OCc3ccccc3)cnc21 [Compound 281]	784 nM
Cc1ccc(O)c(C)c1-n1c(N)c(C(N)=O)c2ncc(C#CCN(C)C)nc21 [Compound 226]	12 nM
Cc1ccc(O)c(C)c1-n1c(N)c(C(N)=O)c2cc(-c3ccccn3)cnc21 [Compound 295]	< 10 nM
Cc1ccc(O)c(C)c1-n1c(N)c(C(N)=O)c2nc(C(=O)Nc3cccnc3)cnc21 [Compound 243, 6-amino-5-(3-hydroxy-2,6-dimethyl-phenyl)-N2-(3-pyridyl)pyrrolo[2,3-b]pyrazine-2,7-dicarboxamide]	69 nM
Cc1ccc(O)c(C)c1-n1c(N)c(C(N)=O)c2nc(-c3ncco3)cnc21 [Compound 60]	10 nM
Cc1ccc(O)cc1-n1c(N)c(C(N)=O)c2nc(-c3ccc(N4CCN(CCO)CC4)cc3)ccc21 [Compound 13]	190 nM

Results, then the molecule that gave them:

IC50	SMILES
< 10 nM	Cc1ccc(O)c(C)c1-n1c(N)c(C(N)=O)c2nc(N3CC4CCC(C3)O4)cnc21 [Compound 92]
16 nM	Cc1ccc(O)c(C)c1-n1c(N)c(C(N)=O)c2nc(C(F)F)cnc21 [Compound 263, 6-amino-2-(difluoromethyl)-5-(3-hydroxy-2,6-dimethyl-phenyl)pyrrolo[2,3-b]pyrazine-7-carboxamide]
< 10 nM	Cc1ccc(-c2cnc3c(n2)c(C(N)=O)c(N)n3-c2c(C)ccc(O)c2C)nc1 [Compound 61]
1090 nM	Cc1ccc(O)cc1-n1c(N)c(C(N)=O)c2nc(-c3ccc(F)c(Cl)c3)ccc21 [Compound 15]
191 nM	COCCOCC#Cc1cnc2c(C(N)=O)c(N)n(-c3c(C)ccc(O)c3C)c2n1 [Compound 240]
988 nM	Cc1ccc(O)cc1-n1c(N)c(C(N)=O)c2nc(-c3ccn(C)n3)ccc21 [Compound 12]
12 nM	Cc1ccc(O)c(C)c1-n1c(N)c(C(N)=O)c2nc(N3CCOC(C)C3)cnc21 (stereo not drawn) [Compound 59]
11 nM	Cc1cnc2c(n1)c(C(N)=O)c(N)n2-c1c(C)ccc(O)c1C [Compound 285]
< 10 nM	Cc1ccc(O)c(C)c1-n1c(N)c(C(N)=O)c2cc(S(=O)(=O)C3CC3)cnc21 [Compound 311]
15 nM	Cc1ccc(O)c(C)c1-n1c(N)c(C(N)=O)c2ncc(C#CC(C)(C)O)nc21 [Compound 239]
465 nM	Cc1ccc(O)cc1-n1c(N)c(C(N)=O)c2ncc(-c3cccc(C(N)=O)c3)nc21 [Compound 156]
11 nM	Cc1ccc(O)c(C)c1-n1c(N)c(C(N)=O)c2nc(C(=O)NCc3ccccc3)cnc21 [Compound 245]
< 10 nM	C=C(C)c1cnc2c(n1)c(C(N)=O)c(N)n2-c1c(C)ccc(O)c1C [Compound 202]
14 nM	Cc1ccc(O)c(C)c1-n1c(N)c(C(N)=O)c2ncc(C#C[C@@H]3COC[C@H]3O)nc21 [Compound 234]
< 10 nM	CCN(CC)c1cnc2c(n1)c(C(N)=O)c(N)n2-c1c(C)ccc(O)c1C [Compound 88]
< 10 nM	Cc1ccc(O)c(C)c1-n1c(N)c(C(N)=O)c2ncc(C#CC3(O)CCC(F)(F)CC3)nc21 [Compound 242, 6-amino-3-[2-(4,4-difluoro-1-hydroxy-cyclohexyl)ethynyl]-5-(3-hydroxy-2,6-dimethyl-phenyl)pyrrolo[2,3-b]pyrazine-7-carboxamide]
13 nM	C=Cc1nc2c(C(N)=O)c(N)n(-c3c(C)ccc(O)c3C)c2nc1C(F)(F)F [Compound 102, 6-amino-5-(3-hydroxy-2,6-dimethyl-phenyl)-3-(trifluoromethyl)-2-vinyl-pyrrolo[2,3-b]pyrazine-7-carboxamide]
12 nM	CCCCc1cnc2c(n1)c(C(N)=O)c(N)n2-c1c(Cl)ccc(O)c1C [Compound 107]
< 10 nM	Cc1ccc(O)c(C)c1-n1cc(C(N)=O)c2cc(C3CC3)cnc21 [Compound 143]
79 nM	Cc1ccc(O)cc1-n1c(N)c(C(N)=O)c2nc(-c3ccnc(N)c3)ccc21 [Compound 22]
< 10 nM	Cc1ccc(O)c(C)c1-n1c(N)c(C(N)=O)c2nc(-c3ccccn3)cnc21 [Compound 34]
55 nM	Cc1ccc(O)c(C)c1-n1c(N)c(C(N)=O)c2nccnc21 [Compound 147]
